# Earlier results, collected in patent US6475978B1, “Method of making water-softening and detergent compositions” (Unilever Home & Personal Care USA a division of Conopco, …, priority 1999, dated 2002).
# Like-named read-outs stand apart in the source and are kept apart here.
# Conditions: at 20° C.
# [1] = materials with solubility of less than 50 g per 100 g water
Water Solubility (materials with solubility of at least 50 g per 100 g water),Structure (SMILES),Water Solubility [1]
>100 g/100 g,NC(N)=O [Urea],–
–,O=P(O)(O)OP(=O)(O)OP(=O)(O)O [Sodium tripolyphosphate anhydrous],15 g/100 g
–,O=BO[O-].[Na+] [Sodium perborate anhydrous],3.7 g/100 g
